# Test results: publication PMC10321442 (Preventive Nutrition and Food Science, 2023)
# Molecular target: α-amylase (Aspergillus oryzae, UniProt P0C1B3)
# Test: amylose hydrolysis inhibition at […], peroxidase-glucose oxidase readout
# Assay type: biochemical
# Conditions: read-out: % inhibition at 0.50 mM
smiles,measurement,value
COc1cc(/C=C/C(=O)O[C@H]2CC[C@]34C[C@]35CC[C@]3(C)[C@@H]([C@H](C)CCC=C(C)C)CC[C@@]3(C)[C@@H]5CC[C@H]4C2(C)C)ccc1O [Cycloartenyl ferulate],inhibition at 500 µM,12.7 ± 1.11%
